What was measured:
hippocampal kindled rats = experiment: Hippocampal kindled rat model; assay type: in vivo, Sprague-Dawley rats; details: for # Protected/# Tested / Afterdischarge Duration (sec) ± S.E.M. / Seizure Score ± S.E.M.: time of test 15 min; for Seizure Score ± S.E.M.: stages 1-5
Method: In the hippocampal kindling model (Lothman E W, et al., Epilepsy Res., 1988, 2(6) 367-79), adult male Sprague-Dawley rats are surgically implanted with bipolar electrodes. Seizure score was assessed using the following stages: (1) mouth and facial movements; (2) above symptoms plus head nodding; (3) above symptoms plus forelimb clonus;(4) above symptoms plus rearing; and (5) above symptoms plus falling.

[1] = test system: electrically kindled rats (Stage 5 seizures); experiment: Electrically kindled rat model (corneal electrodes); assay type: in vivo, Wistar rats; details: one hour after administration; for % Protection: 100% minus % Seizure Activity
Text: A similar effect for the enantiomer of Formula (Ib) was also found in the electrically kindled rat model (Racine R., J. Clin. Neurophysiol., 1972, 32, 281-294), an alternative model of kindling. Electrical stimulation through corneal electrodes induces a progression of behavioral seizures similar to those observed in hippocampal kindling.
Adult male Wistar rats were electrically kindled for 4 seconds (8 mA; 60 Hz) via corneal electrodes for a minimum of Stage 5 seizures.
One hour after oral administration, % Seizure Activity was assessed as a combined score of seizure activity for each animal for the total number of animals per group; % Protection is derived by subtracting % Seizure Activity om 100%.

NC(=O)OC[C@@H](O)c1ccccc1Cl [Formula (Ib)]
# Protected/# Tested (hippocampal kindled rats; 12.5 mg/kg intraperitoneally): 2/7
Afterdischarge Duration (sec) ± S.E.M. (hippocampal kindled rats; 12.5 mg/kg intraperitoneally): 52.00 ± 10.88 s
Seizure Score ± S.E.M. (hippocampal kindled rats; 12.5 mg/kg intraperitoneally): 3.43 ± 0.53
# Protected/# Tested (hippocampal kindled rats; 25 mg/kg intraperitoneally): 4/7
Afterdischarge Duration (sec) ± S.E.M. (hippocampal kindled rats; 25 mg/kg intraperitoneally): 38.29 ± 13.48 s
Seizure Score ± S.E.M. (hippocampal kindled rats; 25 mg/kg intraperitoneally): 2.29 ± 0.78
# Protected/# Tested (hippocampal kindled rats; 37.5 mg/kg intraperitoneally): 5/7
Afterdischarge Duration (sec) ± S.E.M. (hippocampal kindled rats; 37.5 mg/kg intraperitoneally): 38.00 ± 11.87 s
Seizure Score ± S.E.M. (hippocampal kindled rats; 37.5 mg/kg intraperitoneally): 2.29 ± 0.75
ED50 (hippocampal kindled rats; Rattus norvegicus, ip, intraperitoneally, 95% confidence interval of 12.5 to 37.5 mg/kg, read-out: calculated ED50 for reduction of the seizure score from 5 to 3 or less): ~22.5 mg/kg
% Seizure Activity ([1]; 1 mg/kg oral): 93.3%
% Protection ([1]; 1 mg/kg oral): 6.7%
% Seizure Activity ([1]; 3 mg/kg oral): 46.7%
% Protection ([1]; 3 mg/kg oral): 53.3%
% Seizure Activity ([1]; 10 mg/kg oral): 33.3%
% Protection ([1]; 10 mg/kg oral): 66.7%
% Seizure Activity ([1]; 100 mg/kg oral): 0%
% Protection ([1]; 100 mg/kg oral): 100%
ED50 ([1]; Rattus norvegicus, 1 h, oral, expression of Stage 5 seizures): 4.2 mg/kg

— patent US6562867B2, “Carbamate compounds for use in preventing or treating bipolar disorder” (Ortho-McNeil Pharmaceutical, Inc., priority 2001, dated 2003)
